The structures appear in SMILES notation. pIC50: −log10 of the molar value. Where two headings read alike, the source gives them in different places.

These results are taken from patent US7652047B2, “Phenylamino isothiazole carboxamidines as MEK inhibitors” (Ardea Biosciences, Inc., priority 2005, dated 2010).

In this assay the target is T1, MEK1^CA (human GST-MEK1, constitutively active, Ser218Asp and Ser222Asp) (Homo sapiens, UniProt Q02750, S218D/S222D).
T1 construct: GST; made in house; host or cells: Escherichia coli
T1 sequence (Q02750 whole entry S218D/S222D): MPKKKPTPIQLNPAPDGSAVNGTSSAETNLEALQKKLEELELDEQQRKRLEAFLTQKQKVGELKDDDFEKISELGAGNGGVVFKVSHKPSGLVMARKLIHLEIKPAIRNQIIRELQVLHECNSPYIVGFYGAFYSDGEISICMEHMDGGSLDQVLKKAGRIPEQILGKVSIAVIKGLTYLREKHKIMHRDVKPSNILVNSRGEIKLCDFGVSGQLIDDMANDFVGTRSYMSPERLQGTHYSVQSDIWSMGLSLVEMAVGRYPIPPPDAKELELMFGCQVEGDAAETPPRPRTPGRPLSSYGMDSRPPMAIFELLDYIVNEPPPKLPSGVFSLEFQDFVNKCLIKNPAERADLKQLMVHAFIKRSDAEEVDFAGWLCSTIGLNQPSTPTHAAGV
Description: MEK1 enzymatic activity assay (MEK1^CA / ERK2 / MBP, [γ-33P]ATP incorporation). Format: biochemical. The text has this: Materials and preparation of reagents: Human GST-MEK1 and the constitutively active allele GST-MEK1^CA (harboring the mutations Ser218Asp and Ser222Asp) were subcloned into the […] expression vector pGEM4Z (Promega, Madison, Wis.) from the wild type human MEK1 cDNA. GST-MEK1^CA was expressed in Escherichia coli and partially purified using Glutathione Sepharose 4B affinity resin (Amersham Pharmacia Biotech, Piscataway, N.J.). The ERK2 allele was subcloned from MAPK2/Erk2 cDNA (wild type) in pUSEamp (Upstate Biotechnology, Inc., Waltham, Mass.) into the vector pET21a (Novagen, Madison, Wis.) resulting in an N-terminal histidine-tagged mouse ERK2 allele. […] Myelin basic protein (MBP) was purchased from Gibco BRL (Rockville, Md.). EasyTides adenosine 5′-triphosphate (ATP) ([γ-^33P]) (NEN Perkin Elmer, Wellesley, Mass.) was the source of radiolabel for all kinase reactions. Activated Raf-1 (truncated) and activated MAPKinase 2/ERK2 were purchased from Upstate, Inc. (Lake Placid, N.Y.). 4-20% Criterion Precast gels were purchased from Bio-Rad (Hercules, Calif.).
A typical 25-microliter assay contained 0.002 nanomoles MEK1^CA, 0.02 nanomoles ERK2, 0.25 nanomoles MBP, 0.25 nanomoles unlabeled ATP, and 0.1 μCi [γ^33P] ATP. The screening assay essentially comprised four additions. Five μl of diluted compound were dispensed to 96-well assay plates. Ten μl of 2.5× enzyme cocktail (MEK1^CA and ERK2 only) were then added to each well followed by a pre-incubation for 30 minutes at ambient temperature. […] Finally, 100 μl of 10% trichloroacetic acid (TCA) were added and incubated for 30 minutes at room temperature to halt the reaction and precipitate radiolabeled protein products. Reaction products were harvested on glass fiber 96 well filter plates prewetted with water and 1% pyrophosphate. The filter plate was then washed 5 times with water. Water was displaced by absolute ethanol and the plate was allowed to air dry for 30 minutes at room temperature. A back seal was applied manually and 40 μl of scintillation cocktail were dispensed to each well. A top seal was applied and the plate was counted in the TopCount for two seconds per well.

[1] abbreviates: Table 1, compounds of formula I, read-out: Avg IC50.
The mark [2] stands for this setting: Table 2, Ar1-A contains an amido or indolo group, read-out: IC 50.
Where [3] appears, read: Table 4, R' is (CH2)1 or 2-G, read-out: IC50.

Regarding `CC(C)NC(=N)c1c(O)nsc1Nc1ccc(Oc2cccc(N(C)C)c2)cc1` [compound 260], the pIC50 under setting [1] is 6.30 to 7.00. With `CN(C)CCNC(=N)c1c(O)nsc1Nc1ccc(Oc2cc(Cl)ccc2Cl)cc1` [compound 443], the pIC50 under setting [1] was 7.00 to 9.00. Same read-out and setting: the result for `CC(CO)NC(=N)c1c(O)nsc1Nc1ccc(Oc2ccccc2Br)c(Cl)c1` (centres unmarked) [compound 280] reads 7.00 to 9.00; that for `CC(CO)NC(=N)c1c(O)nsc1Nc1ccc(Oc2ccc(F)cc2)c(F)c1` (centres unmarked) [compound 393], 7.00 to 9.00.

On to `CC(CO)NC(=N)c1c(O)nsc1Nc1ccc(C(=O)Nc2ccccc2)cc1` (centres unmarked) [E-5], for which the pIC50 under setting [2] was below 6.00. As for `N=C(NCC1CCCCC1)c1c(O)nsc1Nc1ccc(Oc2cncnc2)cc1` [drawing 827], the pIC50 under setting [3] was below 6.30. As to `Cc1ccccc1Oc1ccc(Nc2snc(O)c2C(=N)NC(C)C)cc1` [compound 301], the pIC50 under setting [1] was 7.00 to 9.00. For the compound `COCCNC(=N)c1c(O)nsc1Nc1ccc(Oc2cccc(F)c2F)cc1C` [compound 505], the pIC50 under setting [1] was 7.00 to 9.00. On to `N=C(NCc1ccccn1)c1c(O)nsc1Nc1ccc(Oc2cc(F)cc(F)c2)cc1` [compound 415], for which the pIC50 under setting [1] was 7.00 to 9.00. As for `CC1(C)OCC(CNC(=N)c2c(O)nsc2Nc2ccc(Oc3ccccc3)cc2)O1` (centres unmarked) [compound 47], under setting [1], the pIC50 was 7.00 to 9.00. Turning to `COc1ccc(Nc2snc(O)c2C(=N)NCC2CCCCC2)cc1` [compound 60], the pIC50 under setting [1] is below 6.30. On to `CC(C)NC(=N)c1c(O)nsc1Nc1ccc(Oc2ccc(Cl)cc2Cl)c(F)c1` [compound 320], for which, under setting [1], the pIC50 is 7.00 to 9.00. `CC(C)NC(=N)c1c(O)nsc1Nc1ccc(Oc2cccc(C(F)(F)F)c2Cl)c(F)c1` [compound 373]: under setting [1], the pIC50 was 7.00 to 9.00. For the compound `CC(C)NC(=N)c1c(O)nsc1Nc1ccc(Oc2c(F)ccc(F)c2Cl)cc1` [compound 318], the pIC50 under setting [1] was 6.30 to 7.00. Same read-out and setting: the result for `CC(C)NC(=N)c1c(O)nsc1Nc1ccc(Oc2cc(Cl)ccc2Cl)c(F)c1` [compound 367] reads 7.00 to 9.00; that for `N=C(N[C@@H]1CC2CCC1C2)c1c(O)nsc1Nc1ccc(Oc2ccccc2)cc1` (some centres unmarked) [Cpd 22], 7.00 to 9.00. Regarding `COCC(C)NC(=N)c1c(O)nsc1Nc1ccc(Oc2ccccc2)cc1` (centres unmarked) [compound 178], the pIC50 under setting [1] is 7.00 to 9.00. On to `Cc1cc(Oc2cccc(C(F)(F)F)c2)ccc1Nc1snc(O)c1C(=N)NCC(O)CO` (centres unmarked) [compound 472], for which the pIC50 under setting [1] is 7.00 to 9.00. With `CC(C)NC(=N)c1c(O)nsc1Nc1ccc(Oc2cc(Cl)ccc2Cl)nc1` [compound 431], the pIC50 under setting [1] is 7.00 to 9.00. The same measure, in the same setting: the result for `N=C(NCCO)c1c(O)nsc1Nc1ccc(-c2nc3ccccc3[nH]2)cc1` [compound 511] reads below 6.30. Regarding `N=C(NCCCO)c1c(O)nsc1Nc1ccc(C(=O)N2CCc3ccccc32)cc1` [E-11], the pIC50 under setting [2] is 6.70 to 9.00.

As to `C[C@@H](CO)NC(=N)c1c(O)nsc1Nc1ccc(Oc2ccccc2)cc1` [compound 174], under setting [1], the pIC50 is 7.00 to 9.00. Take `N=C(NCCO)c1c(O)nsc1Nc1ccc(Oc2cc(F)cc(F)c2)cc1` [compound 411]: the pIC50 under setting [1] is 6.30 to 7.00. As to `N=C(NCC1CCCCC1)c1c(O)nsc1Nc1ccc(Oc2cc(F)cc(F)c2)cc1` [compound 423], under setting [1], the pIC50 was 7.00 to 9.00. As to `N=C(NCCCCO)c1c(O)nsc1Nc1ccc(C(=O)NCCCCO)cc1` [E-15], the pIC50 under setting [2] was below 6.00. For `N=C(NCC1CCCCC1)c1c(O)nsc1Nc1ccc(CO)cc1` [compound 57], under setting [1], the pIC50 is below 6.30.

On to `N=C(NCC1CCCCC1)c1c(O)nsc1Nc1ccc(Sc2ccc([N+](=O)[O-])cc2)cc1` [compound 84], for which the pIC50 under setting [1] was 6.30 to 7.00. As to `CC[C@H](CO)NC(=N)c1c(O)nsc1Nc1ccc(Oc2cc(F)cc(F)c2)cc1C` [compound 469], the pIC50 under setting [1] was 7.00 to 9.00. On to `CC(C)NC(=N)c1c(O)nsc1Nc1ccc(Oc2cc(Cl)ccc2Cl)cc1` [compound 313], for which the pIC50 under setting [1] was below 6.30. As to `CC(C)CNC(=N)c1c(O)nsc1Nc1ccc(Oc2ccccc2)cc1` [compound 202], the pIC50 under setting [1] is 7.00 to 9.00. As for `N=C(NCC(O)CO)c1c(O)nsc1Nc1ccc(Cc2ccccc2)cc1` (centres unmarked) [compound 129], under setting [1], the pIC50 was 6.30 to 7.00. Same read-out and setting: the result for `CC(CO)NC(=N)c1c(O)nsc1Nc1ccc(Oc2ccc(Br)c3ccccc23)cc1` (centres unmarked) [compound 337] reads 7.00 to 9.00. In the case of `N=C(NCC(O)O)c1c(O)nsc1Nc1ccc([N+](=O)[O-])cc1` [compound 78], the pIC50 under setting [1] is below 6.30. With `CC(C)NC(=N)c1c(O)nsc1Nc1ccc(Oc2ccc(Cl)cc2)c(Cl)c1` [compound 361], the pIC50 under setting [1] is 6.30 to 7.00. Regarding `Cc1cc(Oc2cccc(C(F)(F)F)c2)ccc1Nc1snc(O)c1C(=N)NO` [compound 471], the pIC50 under setting [1] was below 6.30. In the case of `CC(C)NC(=N)c1c(O)nsc1Nc1ccc(Oc2ccccc2)c(F)c1` [compound 307], the pIC50 under setting [1] is 7.00 to 9.00. As for `CC(CO)NC(=N)c1c(O)nsc1Nc1ccc(Oc2cc(F)ccc2F)cc1` (centres unmarked) [compound 350], the pIC50 under setting [1] is 7.00 to 9.00. Same read-out and setting: the result for `N=C(NCCO)c1c(O)nsc1Nc1ccc(Oc2ccc(F)cc2)c(Br)c1` [compound 207] reads below 6.30; that for `CC(C)NC(=N)c1c(O)nsc1Nc1ccc(Oc2cc(F)cc(F)c2)cc1` [compound 287], 7.00 to 9.00; that for `CC(C)c1ccc(Nc2snc(O)c2C(N)=NCC(O)CO)cc1` (centres unmarked) [compound 70], 6.30 to 7.00. Turning to `Cc1ccc(F)c(Oc2ccc(Nc3snc(O)c3C(=N)NC(C)C)cc2)c1` [compound 347], under setting [1], the pIC50 is 7.00 to 9.00. Take `CC[C@H](CO)NC(=N)c1c(O)nsc1Nc1ccc(Oc2cccc(C(F)(F)F)c2)cc1C` [compound 474]: the pIC50 under setting [1] was 7.00 to 9.00.

As to `N#CNC(=N)c1c(O)nsc1Nc1ccc(Oc2ccccc2)cc1` [compound 162], the pIC50 under setting [1] was below 6.30. Regarding `N=C(NCC1CCCO1)c1c(O)nsc1Nc1ccc(Oc2ccccc2)cc1` (centres unmarked) [Cpd 25], the pIC50 under setting [1] is 7.00 to 9.00. Same read-out and setting: the result for `CC(C)(CO)CNC(=N)c1c(O)nsc1Nc1ccc(Oc2ccccc2)cc1` [compound 143] reads 7.00 to 9.00; that for `CC(C)NC(=N)c1c(O)nsc1Nc1ccc(Oc2ccc(F)cc2)c(F)c1` [compound 395], 6.30 to 7.00. Still for that read-out and setting: the result for `COc1ccc(-c2ccccc2)cc1Nc1snc(O)c1C(=N)NCC1CCCCC1` [compound 62] reads below 6.30; that for `CC(C)C(=O)O[C@H]1CC[C@H](c2ccc(Nc3snc(O)c3C(=N)NCC(O)CO)cc2)CC1` (some centres unmarked) [compound 195], below 6.30. The same measure, in the same setting: the result for `CC(CO)NC(=N)c1c(O)nsc1Nc1ccc(Oc2ccc(F)cc2)cc1` (centres unmarked) [compound 206] reads below 6.30; that for `CC(C)NC(=N)c1c(O)nsc1Nc1ccc(Oc2ccc(F)cc2Cl)cc1C(F)(F)F` [compound 407], 7.00 to 9.00. As for `Cc1ccc(Nc2snc(O)c2C(=N)NC2CCCC2)cc1` [Cpd 2], the pIC50 under setting [1] is 6.30 to 7.00. For the compound `N=C(NCC1CCCCC1)c1c(O)nsc1Nc1ccc(S(=O)(=O)Nc2ccccc2)cc1` [E-2], the pIC50 under setting [2] is below 6.00. On to `N=C(NCC(O)O)c1c(O)nsc1Nc1ccc(Oc2ccc(Cl)cc2Cl)cc1` [compound 229], for which the pIC50 under setting [1] was 7.00 to 9.00. In the case of `CC(CO)NC(=N)c1c(O)nsc1Nc1ccc(Oc2ccc(Cl)cc2)cc1` (centres unmarked) [compound 191], the pIC50 under setting [1] was 6.30 to 7.00. On to `N=C(NCc1cccc2ccccc12)c1c(O)nsc1Nc1ccc(Oc2ccccc2)cc1` [compound 45], for which the pIC50 under setting [1] was 7.00 to 9.00. For the compound `CC(C)NC(=N)c1c(O)nsc1Nc1ccc(Oc2ccc(O)cc2)cc1` [compound 298], the pIC50 under setting [1] was 6.30 to 7.00. `N=C(NCCC1=CCCCC1)c1c(O)nsc1Nc1ccc(Oc2ccccc2)cc1` [Cpd 13]: under setting [1], the pIC50 was 7.00 to 9.00. The same measure, in the same setting: the result for `CC(CO)NC(=N)c1c(O)nsc1Nc1ccc(Oc2ccc(F)cc2Cl)c(F)c1` (centres unmarked) [compound 370] reads 7.00 to 9.00; that for `CC(C)NC(=N)c1c(O)nsc1Nc1cc(F)c(Oc2cc(Cl)ccc2Cl)cc1F` [compound 475], 7.00 to 9.00.

Take `Cc1cc(Oc2cccc(C(F)(F)F)c2)ccc1Nc1snc(O)c1C(=N)NC(CO)C(C)C` (centres unmarked) [compound 492]: the pIC50 under setting [1] is 6.30 to 7.00. As to `CC(CO)/N=C(\N)c1c(O)nsc1Nc1ccc(Oc2ccccc2)cc1` (centres unmarked) [compound 154], under setting [1], the pIC50 is 7.00 to 9.00. The same measure, in the same setting: the result for `CC(CO)NC(=N)c1c(O)nsc1Nc1ccc(Oc2ccc(Cl)cc2Cl)c(F)c1` (centres unmarked) [compound 374] reads 7.00 to 9.00. Turning to `Cc1ccc(Oc2ccc(Nc3snc(O)c3C(=N)NCC3CCCCC3)cc2)cn1` [drawing 824], the pIC50 under setting [3] was 6.30 to 7.00.

`CC(C)NC(=N)c1c(O)nsc1Nc1ccc(Oc2cccc(F)c2F)cc1` [compound 326]: the pIC50 under setting [1] is 7.00 to 9.00. For `Cc1ccc(Cl)c(Oc2ccc(Nc3snc(O)c3C(=N)NC(C)CO)cc2)c1` (centres unmarked) [compound 288], the pIC50 under setting [1] was 7.00 to 9.00.
